Assays:
[1] = tested on: disease tolerance (T) level; experiment: Connectivity map drug screen: effect of each drug on tolerance level; format: cell-based; conditions: for Effect on tolerance level: t-test, positive/negative sign = increasing/decreasing level following drug treatment; for effect on tolerance: connectivity map drug screen, at least 6 cell lines of different tissues, all tissues under study
Description: (§1) Using the drug screen of the connectivity map [Aravind Subramanian et al., Cell 171 (6): 1437-1452 (2017)], the effect of each drug on resistance and tolerance was next analyzed in at least 6 cell lines of different tissues. Identification of multiple drugs that display an effect on resistance/tolerance-related diseases allows (i) repurposing of drugs, and (ii) personalized prioritization of drugs. For instance, the screen tested three P glycoprotein inhibitors: zosuquidar, elacridar, and dofequidar. […] Thus, for specific disease in which P glycoprotein inhibitor is required, it is possible to prioritize drugs for each patient based on its baseline combination of resistance and tolerance state.

resistance (R) level = experiment: Connectivity map drug screen: effect of each drug on resistance level; format: cell-based; conditions: for Effect on resistance level: t-test, positive/negative sign = increasing/decreasing level following drug treatment; for effect on resistance: connectivity map drug screen, at least 6 cell lines of different tissues
Description: as §1

SMILES	Effect on tolerance level ([1]; tissue: breast) [signed −log p-values]	Effect on tolerance level ([1]; tissue: kidney) [signed −log p-values]	Effect on tolerance level ([1]; tissue: large intestine) [signed −log p-values]	Effect on tolerance level ([1]; tissue: pancreas) [signed −log p-values]	Effect on tolerance level ([1]; tissue: prostate) [signed −log p-values]	Effect on tolerance level ([1]; tissue: skin) [signed −log p-values]	Effect on resistance level (resistance (R) level; tissue: breast) [signed −log p-values]	Effect on resistance level (resistance (R) level; tissue: kidney) [signed −log p-values]	Effect on resistance level (resistance (R) level; tissue: large intestine) [signed −log p-values]	Effect on resistance level (resistance (R) level; tissue: pancreas) [signed −log p-values]	Effect on resistance level (resistance (R) level; tissue: prostate) [signed −log p-values]	Effect on resistance level (resistance (R) level; tissue: skin) [signed −log p-values]	effect on tolerance [1]	effect on resistance (resistance (R) level)
O[C@@H](COc1cccc2ncccc12)CN1CCN([C@@H]2c3ccccc3[C@@H]3[C@H](c4ccccc42)C3(F)F)CC1 [zosuquidar]	11.19	5.15	5.89	5.81	5.97	2.91	0.13	−2.54	−7.65	−2.82	−2.05	−6.00	–	–
O=C(C(c1ccccc1)c1ccccc1)N1CCN(CC(O)COc2cccc3ncccc23)CC1 (stereo not shown) [dofequidar]	6.29	2.40	6.03	2.60	1.54	0.89	0.89	7.33	9.14	5.84	3.47	9.17	increased tolerance	increasing resistance
COc1cc2c(cc1OC)CN(CCc1ccc(NC(=O)c3cccc4c(=O)c5cccc(OC)c5[nH]c34)cc1)CC2 [elacridar]	1.84	8.48	13.47	−0.10	−1.43	2.77	7.26	6.87	10.56	2.33	4.37	4.66	increased tolerance	increasing resistance

Reference: patent publication US20240353397A1, “MARKERS OF RESISTANCE AND DISEASE TOLERANCE AND USES THEREOF” (priority 2021, published 2024)
